From patent publication US9205091B2, “Diazeniumdiolated compounds, pharmaceutical compositions, and method of treating cancer” (The United States of America, as represented by the …, priority 2009, dated 2015)

What was measured:
[1] = tested on: H1703 cells; assay: H1703 xenograft in athymic NCr-nu/nu mice, JS-K (Example 3); assay type: in vivo; settings: 6 μmol/kg i.v., three times a week for three weeks
Method: H1944 or H1703 cells are injected at 5×10^6 s.c. into a flank of 7-week-old female athymic NCr-nu/nu mice (Charles River, Wilmington, Mass.). The drug injections are initiated when the tumors reached 2×2×2 mm (typically 3-4 weeks). JS-K is formulated in Pluronic P123 (P123) (BASF, Florham Park, N.J.) micelles. Animals are treated three times a week for three weeks with i.v. tail vein injections of either vehicle (2.25% P123 in PBS) or JS-K (6 μmol/kg in the vehicle). Tumors are measured using a caliper twice a week, and the tumor volumes are calculated using a formula for ellipsoid volume, π/6×L×W×H (Tomayko and Reynolds, 1989). The non-parametric Mann-Whitney test is utilized for statistical comparisons of tumor volumes at each time point. Body weights are taken before each drug injection. Animals are sacrificed 2 h after the last drug injection. Blood is collected by cardiac puncture under isoflurane anesthesia, for testing for cytokines. Cytokines in serum are measured using a mouse Th1/2 multiplex assay (Meso Scale Discovery, Gaithersburg, Md.), according to the manufacturer's protocol. There were 9-13 mice/group at termination.

[2] = tested on: H1703 cells; assay: Total glutathione / GSSG content after JS-K treatment; assay type: cell-based, human; settings: JS-K 1 μM, 1 h
Method: (§1) H1703 or H1944 cells are plated in 6-well plates at 6×10^5 per well. Cells are treated with JS-K for 1 h at 1 μM (H1703) or 10 μM (H1944). After treatment, cells are washed with PBS, scraped into PBS and collected by centrifugation at 800 g for 10 min. The pellets are resuspended in 80 μL of 10 mM HCl and lysed by two successive rounds of freeze and thawing. Twenty μL of a 5% 5-sulfosalicylic acid solution is added to the lysate. The precipitate is removed by centrifugation at 8,000 g for 10 min, and the supernatant is analyzed for total glutathione content using total glutathione quantification kit (Dojindo, Rockville, Md.) according to the manufacturer's protocol. To measure GSSG concentration, cells are treated and lysed in accordance with the procedure above. The lysate is then neutralized with 0.1 M NaOH and treated with 4-vinylpyridine at a final concentration of 50 mM for 30 min.

[3] = tested on: H1944 cells; assay: as above; assay type: cell-based, human; settings: JS-K 10 μM, 1 h
Method: as §1

[4] = tested on: mitochondrial superoxide; assay: Mitochondrial superoxide level, MitoSOX; assay type: cell-based, human
Method: Mitochondrial superoxide level is measured using MitoSOX fluorescent dye (Invitrogen, Carlsbad, Calif.), according to the manufacturer's protocol. Rotenone (10 μM) is used as a positive control.

[5] = tested on: H322/CRL5806; assay: MTT proliferation assay, JS-K 48 h (Example 3); assay type: cell-based, human; settings: 10 concentrations 50 nM to 50 μM
Method: (§2) JS-K is synthesized as described previously (Saavedra et al., J. Org. Chem., 66: 3090-3098(2001)). Cell lines are obtained from the American Type Culture Collection (Manassas, Va.) and cultured according to the supplier's protocol. For proliferation assays cells are seeded at 2×10^4 per well in 96-well plates and allowed to adhere for 24 h. JS-K is prepared as 10 mM stock solution in DMSO. Increasing drug concentrations in 10 μL of PBS are added to 100 μL of the culture medium for 48 h. MTT assay (Promega, Madison, Wis.) is performed according to the manufacturer's protocol. Each concentration is represented in six repeats, and the screening is performed as at least two independent experiments. IC50 values are calculated using Sigma Plot software (Systat Software, Chicago, Ill.).

[6] = tested on: H1373/CRL5866; assay: MTT proliferation assay, JS-K 48 h (Example 3); assay type: cell-based, human; settings: 10 concentrations 50 nM to 50 μM
Method: as §2

[7] = tested on: H1693/CRL5887; assay: MTT proliferation assay, JS-K 48 h (Example 3); assay type: cell-based, human; settings: 10 concentrations 50 nM to 50 μM
Method: as §2

[8] = tested on: H838/CRL5844; assay: MTT proliferation assay, JS-K 48 h (Example 3); assay type: cell-based, human; settings: 10 concentrations 50 nM to 50 μM
Method: as §2

[9] = tested on: A549/CCL185; assay: MTT proliferation assay, JS-K 48 h (Example 3); assay type: cell-based, human; settings: 10 concentrations 50 nM to 50 μM
Method: as §2

[10] = tested on: H460/HTB177; assay: MTT proliferation assay, JS-K 48 h (Example 3); assay type: cell-based, human; settings: 10 concentrations 50 nM to 50 μM
Method: as §2

[11] = tested on: H1703/CRL5889; assay: MTT proliferation assay, JS-K 48 h (Example 3); assay type: cell-based, human; settings: 10 concentrations 50 nM to 50 μM
Method: as §2

[12] = tested on: H1395/CRL5868; assay: MTT proliferation assay, JS-K 48 h (Example 3); assay type: cell-based, human; settings: 10 concentrations 50 nM to 50 μM
Method: as §2

[13] = tested on: H2023/CRL5912; assay: MTT proliferation assay, JS-K 48 h (Example 3); assay type: cell-based, human; settings: 10 concentrations 50 nM to 50 μM
Method: as §2

[14] = tested on: H2030/CRL5914; assay: MTT proliferation assay, JS-K 48 h (Example 3); assay type: cell-based, human; settings: 10 concentrations 50 nM to 50 μM
Method: as §2

[15] = tested on: H1734/CRL5891; assay: MTT proliferation assay, JS-K 48 h (Example 3); assay type: cell-based, human; settings: 10 concentrations 50 nM to 50 μM
Method: as §2

[16] = tested on: H1792/CRL5895; assay: MTT proliferation assay, JS-K 48 h (Example 3); assay type: cell-based, human; settings: 10 concentrations 50 nM to 50 μM
Method: as §2

[17] = tested on: H1944/CRL5907; assay: MTT proliferation assay, JS-K 48 h (Example 3); assay type: cell-based, human; settings: 10 concentrations 50 nM to 50 μM
Method: as §2

[18] = tested on: H1355/CRL5865; assay: MTT proliferation assay, JS-K 48 h (Example 3); assay type: cell-based, human; settings: 10 concentrations 50 nM to 50 μM
Method: as §2

[19] = tested on: H441/HTB174; assay: MTT proliferation assay, JS-K 48 h (Example 3); assay type: cell-based, human; settings: 10 concentrations 50 nM to 50 μM
Method: as §2

[20] = tested on: H2126/CRL5925; assay: MTT proliferation assay, JS-K 48 h (Example 3); assay type: cell-based, human; settings: 10 concentrations 50 nM to 50 μM
Method: as §2

[21] = tested on: H2122/CRL5985; assay: MTT proliferation assay, JS-K 48 h (Example 3); assay type: cell-based, human; settings: 10 concentrations 50 nM to 50 μM
Method: as §2

[22] = tested on: H1568/CRL5876; assay: MTT proliferation assay, JS-K 48 h (Example 3); assay type: cell-based, human; settings: 10 concentrations 50 nM to 50 μM
Method: as §2

[23] = tested on: H1703 cells; assay: H1703 xenograft in athymic NCr-nu/nu mice, tumor weights (Example 10); assay type: in vivo; settings: 6 micromols/kg i.v., three times a week for three weeks
Method: H1703 cells are harvested at 80% confluence, washed with PBS, and suspended in PBS. The cells are injected at 5×10^6 s.c. into a flank of 7-week-old female athymic NCr-nu/nu mice (Charles River). […] Animals are treated three times a week for three weeks with i.v. tail vein injections of either vehicle (2.25% P-123 in PBS) or 1 or 2 (6 micromols/kg in the vehicle) or 6 (8 micromols/kg). Body weights are taken before each drug injection. Animals are sacrificed two hours after the last drug injection and the tumors are excised and weighed. There are 13-15 mice/group at termination. The non-parametric Mann-Whitney test is utilized for statistical comparisons of tumor weights.

IC50 [5]: 8.71 µM
IC50 [6]: 0.97 µM
IC50 [7]: 0.33 µM
IC50 [8]: 5.84 µM
IC50 [9]: 7.6 µM
IC50 [10]: 7.61 µM
IC50 [11]: 0.4 µM
IC50 [12]: 3.17 µM
IC50 [13]: 11.6 µM
IC50 [14]: 14.7 µM
IC50 [15]: 0.36 µM
IC50 [16]: 9.08 µM
IC50 [17]: 17.6 µM
IC50 [18]: 7.93 µM
IC50 [19]: 1.01 µM
IC50 [20]: 4.13 µM
IC50 [21]: 6.09 µM
IC50 [22]: 0.4 µM
SMILES: CCOC(=O)N1CCN(/[N+]([O-])=N/Oc2ccc([N+](=O)[O-])cc2[N+](=O)[O-])CC1 [Compound 1]
growth of xenografted tumor cells vs vehicle [1]: significantly reduces growth
GSH μmol/mg protein [2]: 1.27 μmol/mg protein
GSSG μmol/mg protein [2]: 0.042 μmol/mg protein
GSH μmol/mg protein [3]: 0.13 μmol/mg protein
GSSG μmol/mg protein [3]: 0.014 μmol/mg protein
mitochondrial superoxide generation [4]: increase
growth of H1703 human NSCLC cells in vivo vs vehicle [23]: significantly reduced growth
reduction of the tumor weights ([23]; vs vehicle): 49%
